Activity calls are given as the source filed them. Cut-off read from the data, not from the text of the source, for most assays here: actives have a measured Kd and inactives only a lower limit.
Key:
[1] = biological target: T1, Succinate--CoA ligase [ADP-forming] subunit beta, mitochondrial (Homo sapiens, UniProt Q9P2R7)
T1 sequence (Q9P2R7 whole entry): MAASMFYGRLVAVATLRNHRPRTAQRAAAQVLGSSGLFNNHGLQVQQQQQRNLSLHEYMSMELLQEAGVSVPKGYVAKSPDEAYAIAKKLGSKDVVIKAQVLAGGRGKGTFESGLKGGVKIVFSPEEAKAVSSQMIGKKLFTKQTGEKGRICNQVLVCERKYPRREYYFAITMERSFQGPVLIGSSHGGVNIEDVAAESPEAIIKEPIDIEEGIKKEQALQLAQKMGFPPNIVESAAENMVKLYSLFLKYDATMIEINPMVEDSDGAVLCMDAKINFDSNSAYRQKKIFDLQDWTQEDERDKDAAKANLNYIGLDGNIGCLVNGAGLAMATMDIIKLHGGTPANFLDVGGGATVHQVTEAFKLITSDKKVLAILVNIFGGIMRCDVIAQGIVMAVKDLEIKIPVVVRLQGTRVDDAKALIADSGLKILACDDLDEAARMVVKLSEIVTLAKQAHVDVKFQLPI

[2] = biological target: T2, Serine/threonine-protein kinase TAO3 (Homo sapiens, UniProt Q9H2K8)
T2 sequence (Q9H2K8 whole entry): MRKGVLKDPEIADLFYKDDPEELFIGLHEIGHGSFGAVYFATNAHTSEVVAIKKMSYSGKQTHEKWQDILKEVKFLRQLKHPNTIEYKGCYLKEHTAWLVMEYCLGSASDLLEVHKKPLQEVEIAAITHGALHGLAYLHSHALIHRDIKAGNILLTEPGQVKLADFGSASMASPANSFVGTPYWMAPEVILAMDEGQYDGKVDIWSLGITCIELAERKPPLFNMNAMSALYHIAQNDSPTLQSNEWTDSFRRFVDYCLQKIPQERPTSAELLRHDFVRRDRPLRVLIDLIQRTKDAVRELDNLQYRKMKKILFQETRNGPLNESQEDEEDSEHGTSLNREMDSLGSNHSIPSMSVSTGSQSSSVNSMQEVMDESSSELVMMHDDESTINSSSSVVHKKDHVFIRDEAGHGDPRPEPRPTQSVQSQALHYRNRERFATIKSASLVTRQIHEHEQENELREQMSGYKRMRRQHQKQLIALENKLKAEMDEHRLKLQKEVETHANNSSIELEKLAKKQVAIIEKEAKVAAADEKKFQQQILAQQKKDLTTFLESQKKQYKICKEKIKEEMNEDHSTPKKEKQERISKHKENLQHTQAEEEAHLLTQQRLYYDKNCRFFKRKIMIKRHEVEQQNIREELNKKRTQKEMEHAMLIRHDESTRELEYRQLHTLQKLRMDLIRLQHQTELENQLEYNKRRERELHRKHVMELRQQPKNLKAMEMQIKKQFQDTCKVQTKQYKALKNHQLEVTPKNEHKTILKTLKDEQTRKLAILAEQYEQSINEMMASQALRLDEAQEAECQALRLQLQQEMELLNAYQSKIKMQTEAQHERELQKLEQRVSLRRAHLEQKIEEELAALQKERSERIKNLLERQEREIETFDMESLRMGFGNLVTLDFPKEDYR

Activin receptor type-1B = biological target: T3, Activin receptor type-1B (Homo sapiens, UniProt P36896)
T3 sequence (P36896 whole entry): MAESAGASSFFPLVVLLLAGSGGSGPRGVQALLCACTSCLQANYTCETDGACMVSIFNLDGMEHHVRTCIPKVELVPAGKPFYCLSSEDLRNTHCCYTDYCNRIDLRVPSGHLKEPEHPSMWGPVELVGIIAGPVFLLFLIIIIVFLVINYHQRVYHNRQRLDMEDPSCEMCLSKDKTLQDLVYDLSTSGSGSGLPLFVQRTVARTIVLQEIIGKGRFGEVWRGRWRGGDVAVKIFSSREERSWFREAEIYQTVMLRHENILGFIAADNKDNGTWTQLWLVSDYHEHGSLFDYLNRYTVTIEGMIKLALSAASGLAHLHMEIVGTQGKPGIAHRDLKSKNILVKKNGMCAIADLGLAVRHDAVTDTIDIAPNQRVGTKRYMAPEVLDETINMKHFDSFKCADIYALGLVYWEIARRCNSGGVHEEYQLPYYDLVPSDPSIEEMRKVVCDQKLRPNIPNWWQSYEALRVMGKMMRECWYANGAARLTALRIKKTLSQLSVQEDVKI

[3] = biological target: Calcium/calmodulin-dependent protein kinase type II subunit gamma (Homo sapiens, UniProt Q13555)
Chain of Calcium/calmodulin-dependent protein kinase type II subunit gamma (Q13555 whole entry): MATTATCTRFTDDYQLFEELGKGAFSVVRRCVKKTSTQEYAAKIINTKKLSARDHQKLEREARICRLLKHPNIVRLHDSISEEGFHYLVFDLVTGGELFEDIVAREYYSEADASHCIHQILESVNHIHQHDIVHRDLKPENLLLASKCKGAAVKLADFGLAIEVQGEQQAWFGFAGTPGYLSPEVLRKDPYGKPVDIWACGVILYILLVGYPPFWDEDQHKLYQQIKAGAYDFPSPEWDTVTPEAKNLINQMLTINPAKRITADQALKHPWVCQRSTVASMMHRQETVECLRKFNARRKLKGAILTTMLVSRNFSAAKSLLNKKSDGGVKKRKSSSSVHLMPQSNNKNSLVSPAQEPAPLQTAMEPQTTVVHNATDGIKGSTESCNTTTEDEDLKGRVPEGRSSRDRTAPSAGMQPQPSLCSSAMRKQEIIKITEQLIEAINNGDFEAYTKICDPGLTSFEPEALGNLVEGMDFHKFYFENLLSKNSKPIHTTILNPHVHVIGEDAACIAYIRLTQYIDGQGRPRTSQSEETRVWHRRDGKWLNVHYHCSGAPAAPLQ

[4] = biological target: T4, ATP-dependent RNA helicase DDX42 (Homo sapiens, UniProt Q86XP3)
T4 sequence (Q86XP3 whole entry): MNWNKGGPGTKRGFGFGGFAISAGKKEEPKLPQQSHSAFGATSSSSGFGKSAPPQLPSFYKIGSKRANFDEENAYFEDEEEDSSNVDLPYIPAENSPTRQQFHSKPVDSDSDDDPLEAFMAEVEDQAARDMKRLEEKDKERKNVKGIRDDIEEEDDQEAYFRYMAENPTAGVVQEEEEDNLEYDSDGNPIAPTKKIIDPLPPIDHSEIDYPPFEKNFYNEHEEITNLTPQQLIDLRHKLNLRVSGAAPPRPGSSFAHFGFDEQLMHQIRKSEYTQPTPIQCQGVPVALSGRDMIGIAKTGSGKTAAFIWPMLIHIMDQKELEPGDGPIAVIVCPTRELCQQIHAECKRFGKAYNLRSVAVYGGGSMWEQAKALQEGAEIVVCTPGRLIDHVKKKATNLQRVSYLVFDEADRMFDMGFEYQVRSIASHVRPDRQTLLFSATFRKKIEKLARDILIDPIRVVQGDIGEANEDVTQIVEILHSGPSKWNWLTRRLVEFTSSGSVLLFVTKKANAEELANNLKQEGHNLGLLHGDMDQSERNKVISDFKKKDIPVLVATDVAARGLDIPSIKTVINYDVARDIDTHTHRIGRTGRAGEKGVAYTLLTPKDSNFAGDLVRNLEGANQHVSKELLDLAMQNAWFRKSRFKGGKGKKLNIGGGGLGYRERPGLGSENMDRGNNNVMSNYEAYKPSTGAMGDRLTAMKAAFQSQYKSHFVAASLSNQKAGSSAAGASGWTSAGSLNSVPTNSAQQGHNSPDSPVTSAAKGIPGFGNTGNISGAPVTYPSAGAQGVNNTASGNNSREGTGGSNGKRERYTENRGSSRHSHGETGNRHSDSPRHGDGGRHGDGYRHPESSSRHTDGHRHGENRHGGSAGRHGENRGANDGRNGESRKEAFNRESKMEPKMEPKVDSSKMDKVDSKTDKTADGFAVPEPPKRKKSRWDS

[5] = biological target: Adenylate kinase 2, mitochondrial (Homo sapiens, UniProt P54819)
[6] = biological target: Cyclin-dependent kinase 3 (Homo sapiens, UniProt Q00526)
Chain of Cyclin-dependent kinase 3 (Q00526 whole entry): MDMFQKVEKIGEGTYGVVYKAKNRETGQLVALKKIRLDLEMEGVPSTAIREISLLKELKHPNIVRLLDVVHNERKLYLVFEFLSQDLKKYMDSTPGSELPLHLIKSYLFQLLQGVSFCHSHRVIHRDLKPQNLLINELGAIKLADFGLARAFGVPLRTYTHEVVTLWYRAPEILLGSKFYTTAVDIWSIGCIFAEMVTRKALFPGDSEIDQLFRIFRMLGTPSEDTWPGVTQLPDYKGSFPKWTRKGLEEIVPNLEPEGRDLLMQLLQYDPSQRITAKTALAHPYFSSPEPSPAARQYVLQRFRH
Note: in the data inactive means no Kd found up to 30 µM.

| SMILES | Kd [1] | Kd [2] | Kd (Activin receptor type-1B) | Kd [3] | Kd [4] | Kd [5] | Kd [6] |
| --- | --- | --- | --- | --- | --- | --- | --- |
| N[C@@H]1CCCN(c2c(/C=C3\SC(=O)NC3=O)cccc2-c2ccccc2)C1 | > 30 µM (inactive) | > 30 µM (inactive) | > 30 µM (inactive) | > 30 µM (inactive) | > 30 µM (inactive) | > 30 µM (inactive) | > 30 µM (inactive) |
| Cc1ccc(S(=O)(=O)Nc2nc3ccccc3nc2Nc2ccc3nsnc3c2)cc1 | > 30 µM (inactive) | > 30 µM (inactive) | > 30 µM (inactive) | > 30 µM (inactive) |  | > 30 µM (inactive) | > 30 µM (inactive) |
| CN1CC[C@@H](c2c(O)cc(O)c3c(=O)cc(-c4ccccc4Cl)oc23)[C@@H]1CO | > 30 µM (inactive) | > 30 µM (inactive) | > 30 µM (inactive) | 1.34 µM (active) | 0.002 µM | > 30 µM (inactive) | > 30 µM (inactive) |
| Cc1cc(-c2cc(O)ccc2Cl)cc2nnc(Nc3ccc(OCCN4CCCC4)cc3)nc12 | > 30 µM (inactive) | > 30 µM (inactive) | 0.001 µM (active) | > 30 µM (inactive) | > 30 µM (inactive) | > 30 µM (inactive) | > 30 µM (inactive) |
| CNC(=O)c1ccc(-c2cnc3ncc(Cc4ccc5ncccc5c4)n3n2)cc1F [CAPMATINIB] | > 30 µM (inactive) | > 30 µM (inactive) | > 30 µM (inactive) | > 30 µM (inactive) | > 30 µM (inactive) | > 30 µM (inactive) |  |
| O=C(c1ccc(F)c(F)c1Nc1ccc(I)cc1F)N1CC(O)([C@@H]2CCCCN2)C1 [COBIMETINIB] | > 30 µM (inactive) | > 30 µM (inactive) | > 30 µM (inactive) | > 30 µM (inactive) | > 30 µM (inactive) | > 30 µM (inactive) |  |
| CCc1cnn2c(NCc3ccc[n+]([O-])c3)cc(N3CCCC[C@H]3CCO)nc12 [DINACICLIB] | > 30 µM (inactive) | 2.44 µM (active) | > 30 µM (inactive) | > 30 µM (inactive) | > 30 µM (inactive) | > 30 µM (inactive) |  |
| CN1CCN(c2ccc3nc(-c4c(N)c5c(F)cccc5[nH]c4=O)[nH]c3c2)CC1 [DOVITINIB] |  |  |  |  |  | > 30 µM (inactive) |  |
| COc1cc2nccc(Oc3ccc(NC(=O)NC4CC4)c(Cl)c3)c2cc1C(N)=O [LENVATINIB] | > 30 µM (inactive) | > 30 µM (inactive) | > 30 µM (inactive) | > 30 µM (inactive) | > 30 µM (inactive) | > 30 µM (inactive) |  |
| Cc1cn(-c2cc(NC(=O)c3ccc(C)c(Nc4nccc(-c5cccnc5)n4)c3)cc(C(F)(F)F)c2)cn1 [NILOTINIB] | > 30 µM (inactive) |  |  |  |  | > 30 µM (inactive) |  |
| C=CC(=O)N1CCC(Oc2cc3c(Nc4ccc(Cl)c(Cl)c4F)ncnc3cc2OC)CC1 [POZIOTINIB] | > 30 µM (inactive) | > 30 µM (inactive) | > 30 µM (inactive) | > 30 µM (inactive) |  | > 30 µM (inactive) | > 30 µM (inactive) |
| COc1cc(OC)c(/C=C/S(=O)(=O)Cc2ccc(OC)c(NCC(=O)O)c2)c(OC)c1 [RIGOSERTIB] |  | > 30 µM (inactive) | > 30 µM (inactive) | > 30 µM (inactive) |  | > 30 µM (inactive) | > 30 µM (inactive) |
| C[C@@H](c1ccc2nccn2c1)n1nnc2ncc(-c3cnn(C)c3)nc21 [SAVOLITINIB] | > 30 µM (inactive) | > 30 µM (inactive) |  | > 30 µM (inactive) | > 30 µM (inactive) | > 30 µM (inactive) | > 30 µM (inactive) |
| O=C(Nc1cccc(Cl)c1)Nc1ncc(CCNc2ncnc3ccsc23)s1 [SNS-314] | > 30 µM (inactive) | > 30 µM (inactive) | > 30 µM (inactive) |  | > 30 µM (inactive) | > 30 µM (inactive) | > 30 µM (inactive) |
| C[C@@H]1CN(Cc2ccc(F)cc2)[C@@H](C)CN1C(=O)c1cc2c(C(=O)C(=O)N(C)C)cn(C)c2cc1Cl [TALMAPIMOD] | > 30 µM (inactive) | > 30 µM (inactive) | > 30 µM (inactive) | > 30 µM (inactive) |  | > 30 µM (inactive) | > 30 µM (inactive) |
| Nc1nc(N)c2nc(-c3cccc(O)c3)c(-c3cccc(O)c3)nc2n1 [TG100-115] |  |  |  |  | > 30 µM (inactive) | > 30 µM (inactive) |  |

The next lines start with the values.

| Kd [1] | Kd [2] | Kd (Activin receptor type-1B) | Kd [3] | Kd [4] | Kd [5] | Kd [6] | SMILES |
| --- | --- | --- | --- | --- | --- | --- | --- |
|  | > 30 µM (inactive) | > 30 µM (inactive) | > 30 µM (inactive) |  | > 30 µM (inactive) | > 30 µM (inactive) | COc1cc(CCc2cc(NC(=O)c3ccc(N4C[C@@H](C)N[C@@H](C)C4)cc3)n[nH]2)cc(OC)c1 [AZD-4547] |
| > 30 µM (inactive) | > 30 µM (inactive) | > 30 µM (inactive) | > 30 µM (inactive) |  |  | > 30 µM (inactive) | C[C@@H](Nc1cc(F)cc(F)c1)c1cc(C(=O)N(C)C)cc2c(=O)cc(N3CCOCC3)oc12 [AZD-8186] |
| > 30 µM (inactive) |  | 1.27 µM (active) |  | > 30 µM (inactive) | > 30 µM (inactive) |  | Cc1nc(N)sc1-c1ccnc(Nc2ccc(N3CCOCC3)cc2)n1 [CYC-116] |
| > 30 µM (inactive) |  | > 30 µM (inactive) |  | > 30 µM (inactive) | > 30 µM (inactive) | > 30 µM (inactive) | Cc1cc(Nc2cc(N3CCN(C)CC3)nc(/C=C/c3ccccc3)n2)n[nH]1 [ENMD-2076] |
| > 30 µM (inactive) |  |  |  | > 30 µM (inactive) | > 30 µM (inactive) |  | CCn1c(-c2nonc2N)nc2c(C#CC(C)(C)O)ncc(OC[C@H]3CCCNC3)c21 [GSK-690693] |
| > 30 µM (inactive) | > 30 µM (inactive) | > 30 µM (inactive) | > 30 µM (inactive) |  |  | > 30 µM (inactive) | O=C1NC(=O)/C(=C/c2ccc3nccc(-c4ccncc4)c3c2)S1 [GSK-1059615] |

Reference: ChEMBL document CHEMBL3991601, “The target landscape of clinical kinase drugs” (Science, 2017)
